Test results as given in PubChem BioAssay AID624131 (National Center for Advancing Translational Sciences (NCATS), 2012).

System: mouse liver microsomes, LC-MS/MS half-life
Test: qHTS Assay to Find Inhibitors of T. brucei phosphofructokinase: Mouse Liver Microsome Stability
Conditions: at 1 µM; stronger effect = higher value

half-life: 3.85 h
Structure (SMILES): O=C(Cc1ccc(Cl)c(Cl)c1)Nc1ccc(S(=O)(=O)Nc2ccon2)cc1
